According to patent US20080194646A1, “Methods For Avoiding Edema in the Treatment of Metabolic, Inflammatory, and Cardiovascular Disorders” (priority 2005, published 2008):
Like-named read-outs stand apart in the source and are kept apart here.

How the values were obtained:
C57BL/6j ob/ob Mice [1] = assay: anti-diabetic activity in C57BL/6j ob/ob mice (Example 13); type: in vivo; conditions: oral gavage once a day for 1-4 days; for Potency: glucose lowering, 5 to 125 mg/kg, plasma glucose 6 hours after each dose
Experimental: The anti-diabetic activities of the compounds were evaluated in the C57BL/6j ob/ob Mice model.
(§1) Male, 7-9 weeks old, C57BL/6J ob/ob mice were purchased from The Jackson Laboratory (Bar Harbor, Me., USA). Animals were housed (4-5 mice/cage) under standard laboratory conditions at 22±3° C. temperature and 50±20% relative humidity, and were maintained on a diet of Purina rodent chow and water ad libitum. Prior to treatment, blood was collected from the tail vein of each animal. Mice that had non-fasting plasma glucose levels between 250 and 500 mg/dl were used. Each treatment group consisted of 8-10 mice that were distributed so that the mean glucose levels were equivalent in each group at the start of the study. Mice were dosed orally by gavage once a day for 1-4 days with vehicle and one or more dose of test compound at a dose ranging from 5 to 125 mg/kg. Compounds were delivered in a liquid formulation containing 5% (v/v) dimethyl sulfoxide (DMSO), 1% (v/v) Tween 80® and 0.9% (w/v) methylcellulose. The gavage volume was 10 ml/kg. Blood samples were taken at 6 hours after the each dose and analyzed for plasma glucose. Food intake and body weight were measured daily. Plasma glucose concentrations were determined colorimetrically using a commercial glucose oxidase method (Sigma Chemical Co, St. Louis, Mo., USA). Significant difference between groups (comparing drug-treated to vehicle-treated) was evaluated using the Student unpaired t-test.
The following table summarizes the anti-diabetic effects of selected compounds of the present invention and provides their relative potency. […] For example, a compound at 25 mg/kg that lowered the animal glucose level from 400 mg/dL (vehicle group value) to 250 mg/dL, is assigned the potency of +++.

cytochrome P450 2C9 = cytochrome P450 2C9 (Homo sapiens, UniProt P11712); conditions: comparison of enantiomers and racemate, cited from earlier work
C57BL/6j ob/ob Mice [2] = assay: anti-diabetic activity in C57BL/6j ob/ob mice (Example 20); type: in vivo; conditions: oral gavage once a day for 1-4 days
Experimental: as §1, with “The anti-diabetic activities of the compounds were evaluated in the C57BL/6j ob/ob Mice model. Male,” for “Male,”, “Blood samples were taken at 6 hours after the each dose and analyzed for plasma glucose.” left out, “t-test. Table 1 provides the relative potency of some selected compounds of the invention.” for “t-test.”

C57BL/6j ob/ob Mice [3] = assay: glucose lowering activity of halofenate analogs in ob/ob mice (Example 14); type: in vivo; conditions: 125 mg/kg oral gavage once a day for 1-3 days; Student unpaired t-test
Experimental: Male, 8-9 weeks old, C57BL/6J ob/ob mice were purchased from The Jackson Laboratory (Bar Harbor, Me., USA). Animals were housed (4-5 mice/cage) under standard laboratory conditions at 22±3° C. temperature and 50±20% relative humidity, and were maintained on a diet of Purina rodent chow and water ad libitum. Prior to treatment, blood was collected from the tail vein of each animal. Mice that had non-fasting plasma glucose levels between 250 and 500 mg/dl were used. Each treatment group consisted of 8-10 mice that were distributed so that the mean glucose levels were equivalent in each group at the start of the study. Mice were dosed orally by gavage once a day for 1-3 days with either vehicle, (−) halofenic acid, (+) analog 14, 29, 33, 34, 35, 36, 37, or 38 at 125 mg/kg or (−) analog 29, 36, 37 or 38 at 150 mg/kg. Compounds were delivered in a liquid formulation containing 5% (v/v) dimethyl sulfoxide (DMSO), 1% (v/v) tween 80 and 0.9% (w/v) methylcellulose. The gavage volume was 10 ml/kg. Blood samples were taken at 6 hours after the each dose and analyzed for plasma glucose. Food intake and body weight were measured daily. Plasma glucose concentrations were determined colorimetrically using glucose oxidase method (Sigma Chemical Co, St. Louis, Mo., USA). Significant difference between groups (comparing drug-treated to vehicle-treated) was evaluated using the Student unpaired t-test.

[4] = glucose lowering, plasma glucose 6 hours after each dose

cytochrome P450 2C9, sequence (P11712 whole entry): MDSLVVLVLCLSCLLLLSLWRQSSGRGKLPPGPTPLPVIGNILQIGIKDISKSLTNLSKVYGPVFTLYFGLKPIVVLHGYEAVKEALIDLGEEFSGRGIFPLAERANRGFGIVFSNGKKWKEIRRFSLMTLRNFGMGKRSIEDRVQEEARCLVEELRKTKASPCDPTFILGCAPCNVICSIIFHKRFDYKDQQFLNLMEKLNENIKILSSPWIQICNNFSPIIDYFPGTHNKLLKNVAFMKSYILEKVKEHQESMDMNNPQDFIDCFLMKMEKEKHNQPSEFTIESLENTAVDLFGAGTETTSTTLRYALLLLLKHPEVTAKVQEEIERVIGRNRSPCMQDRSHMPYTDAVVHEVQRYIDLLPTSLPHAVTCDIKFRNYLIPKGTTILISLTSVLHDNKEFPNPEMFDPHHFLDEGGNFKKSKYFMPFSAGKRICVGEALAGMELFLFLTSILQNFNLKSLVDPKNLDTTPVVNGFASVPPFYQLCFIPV

Row | SMILES | Potency (C57BL/6j ob/ob Mice [1]) | Insulin Level compared with vehicle (C57BL/6j ob/ob Mice [1]) | Insulin Level compared with vehicle (C57BL/6j ob/ob Mice [2]) | further results
1 | O=C(O)C(Oc1ccc(Cl)cc1-c1nc2ccccc2o1)c1cccc(C(F)(F)F)c1 (stereo not drawn) [Compound I-191] | +++ (effective for glucose lowering at a dose of ≦25 mg/kg) | Lower |  | 
2 | O=C(O)C(Oc1ccccc1-c1nc2ccccc2o1)c1ccc(Cl)cc1 (stereo not drawn) [Compound I-1] | ++ (effective for glucose lowering at a dose of >25 mg/kg but <125 mg/kg) | Lower |  | 
3 | O=C(O)C(Oc1ccccc1-c1nc2ccccc2o1)c1cccc(C(F)(F)F)c1 (stereo not drawn) [Compound I-3] | + (effective for glucose lowering at the dose of ≧125 mg/kg) | Lower |  | 
4 | O=C(O)C(Oc1ccc(Cl)cc1-c1nc2ccccc2o1)c1cccc(Cl)c1 (stereo not drawn) [Compound I-194] | +++ (effective for glucose lowering at a dose of ≦25 mg/kg) | Lower |  | 
5 | O=C(O)C(Oc1ccc(C(F)(F)F)cc1-c1nc2ccccc2o1)c1ccccc1 (stereo not drawn) [Compound I-369] | +++ (effective for glucose lowering at a dose of ≦25 mg/kg) | Lower |  | 
6 | CC(Oc1ccc(C(F)(F)F)cc1-c1nc2ccccc2o1)(C(=O)O)c1ccccc1 (stereo not drawn) [Ia-365] | +++ (effective for glucose lowering at a dose of ≦25 mg/kg) | Lower |  | 
7 | CC(Oc1ccc(C(F)(F)F)cc1-c1nc2ccccc2o1)(C(=O)O)c1ccccc1 (stereo not drawn) [Ia-366] | +++ (effective for glucose lowering at a dose of ≦25 mg/kg) |  |  | 
8 | O=C(O)C(Oc1cccc(C(F)(F)F)c1)c1ccc(Cl)cc1 (single isomer, unassigned; (+)) [(+) enantiomer of halofenic acid, (+) 4-chlorophenyl-(3-trifluoromethylphenoxy)-acetic acid] |  |  |  | inhibition of cytochrome P450 2C9 (cytochrome P450 2C9): quite potent
9 | O=C(O)C(Oc1cccc(C(F)(F)F)c1)c1ccc(Cl)cc1 (racemic) [racemic halofenic acid, 4-Chlorophenyl-(3-trifluoromethylphenoxy)-acetic Acid] |  |  |  | inhibition of cytochrome P450 2C9 (cytochrome P450 2C9): found to inhibit cytochrome P450 2C9
10 | O=C(O)C(Oc1ccc(C(F)(F)F)cc1Cl)c1cccc(C(F)(F)F)c1 (stereo not drawn) [Compound 85] |  |  | Lower | Potency (C57BL/6j ob/ob Mice [2]; [4]): ++ (effective for glucose lowering at the dose of ≦125 mg/kg)
11 | O=C(O)C(Oc1ccc(C(F)(F)F)cc1-c1nc2ccccc2o1)c1ccc(Cl)cc1 (stereo not drawn) [Compound I-372] | +++ (effective for glucose lowering at a dose of ≦25 mg/kg) | Lower |  | 
12 | OCC(Oc1ccc(C(F)(F)F)cc1)c1ccc(C(F)(F)F)cc1 (stereo not drawn) [Compound 128] |  |  | Lower | Potency (C57BL/6j ob/ob Mice [2]; [4]): ++ (effective for glucose lowering at the dose of ≦125 mg/kg)
13 | O=C(O)C(Oc1ccc(C(F)(F)F)cc1-c1nc2ccccc2o1)c1cccc(C(F)(F)F)c1 (stereo not drawn) [Compound I-89] | +++ (effective for glucose lowering at a dose of ≦25 mg/kg) | Lower |  | 
14 | O=C(O)C(Oc1ccc(C(F)(F)F)cc1Cl)c1ccc(C(F)(F)F)cc1 (stereo not drawn) [Compound 89] |  |  | Lower | Potency (C57BL/6j ob/ob Mice [2]; [4]): ++ (effective for glucose lowering at the dose of ≦125 mg/kg)
15 | COc1ccc(C(Oc2ccc(Cl)cc2-c2nc3ccccc3o2)C(=O)O)cc1 (stereo not drawn) [Compound I-193] | +++ (effective for glucose lowering at a dose of ≦25 mg/kg) | Lower |  | 
16 | CC(=O)NCCOC(=O)C(Oc1cccc(C(F)(F)F)c1)c1ccc(C(F)(F)F)cc1 (stereo not drawn) [Compound 142] |  |  | Lower | 
17 | O=C(O)C(Oc1ccc(C(F)(F)F)cc1)c1cccc(C(F)(F)F)c1 (racemic) [Compound 39, (4-trifluoromethyl-phenoxy)-(3-trifluoromethyl-phenyl)-acetic acid] |  |  | Lower | minimal effective dose (C57BL/6j ob/ob Mice [2]; Mus musculus, glucose lowering, plasma glucose 6 hours after each dose, read-out: Potency): ≤ 125 mg/kg
18 | O=C(O)C(Oc1cccc(C(F)(F)F)c1)c1ccc(Cl)cc1 (single isomer, unassigned; (-)) [(−)halofenic acid, (−) (3-trifluoromethylphenoxy) (4-chlorophenyl)acetic acid] |  |  |  | plasma glucose concentrations vs vehicle (C57BL/6j ob/ob Mice [3]): significantly reduced plasma glucose concentrations at 6 hours; inhibition of cytochrome P450 2C9 (cytochrome P450 2C9; listed as (−) enantiomer of halofenic acid): about twenty-fold less active
19 | CC(=O)NCCOC(=O)C(Oc1cccc(C(F)(F)F)c1)c1ccccc1C(F)(F)F (stereo not drawn) [Compound 147] |  |  | Lower | 
20 | O=C(O)C(Oc1ccc(Cl)cc1-c1nc2ccccc2o1)c1ccc(Cl)cc1 (stereo not drawn) [Compound I-190] | +++ (effective for glucose lowering at a dose of ≦25 mg/kg) | Lower |  | 
21 | CC(=O)NCCOC(=O)C(Oc1ccc(C(F)(F)F)cc1)c1ccc(C(F)(F)F)cc1 (stereo not drawn) [Compound 145] |  |  | Lower | 
